The values that follow are results of earlier work, collected in publication PMC10368966, “Safety and efficacy of AK0529 in respiratory syncytial virus‐infected infant patients: A phase 2 proof‐of‐concept trial” (Influenza and Other Respiratory Viruses, 2023).

Series [1] relates to SARS-CoV-2. Further details: method as in PMID 32423584. The settings on record: patients with severe COVID-19 ref 18; cited from earlier work.
In series [2] the test system is SARS-CoV-2. Further details: method as in PMID 32423584. As to conditions: cell cultures ref 18; cited from earlier work.
The test system of a further series is RSV. Further details: method as in PMID 32201897. As to conditions: cited from earlier work.

Take `CCC(CC)COC(=O)[C@H](C)N[P@](=O)(OC[C@H]1O[C@@](C#N)(c2ccc3c(N)ncnn23)[C@H](O)[C@@H]1O)Oc1ccccc1` [Remdesivir]: in the series on SARS-CoV-2 [1], the “effect on viral load” value is “no effect” and the “time to clinical improvement” value was “numerically shorter”. Also, the “inhibition of SARS-CoV-2 virus replication” value in the series with SARS-CoV-2 [2] is “potent inhibitor”.
Consider `CS(=O)(=O)CCCn1c(Cn2c(=O)n(CC(F)(F)F)c3ccncc32)cc2cc(Cl)ccc21` [JNJ‐8678], for which, in the series with RSV, the “length of hospital stay or time to clinical stability” value is recorded as “no improvements” and the “reduction in RSV viral load vs placebo” value is given as “greater reduction in RSV viral load than with placebo”.
